Results on 1 substance are retold here after patent US6855687B2 (The Board of Regents The University of Texas System, priority 2000, dated 2005).

Like-named read-outs stand apart in the source and are kept apart here.

The assay addresses thrombin receptor. Put plainly: Specific binding of 125I thrombin to rat chondrocytes (Scatchard analysis). As for the experimental part: Primary cultures of rat articular chondrocytes were isolated and prepared for in vitro analysis using established methods (see Kuettner, K E., et.al., J. Cell Biology 93: 743-750, 1982). Briefly, cartilage pieces were dissected from the shoulder of rats and the pieces were digested with trypsin for one hour and with collagenase for three hours in tissue culture medium (DMEM) at 37 C. with stirring. The cells were plated in flasks at high density (50,000 cells/cm sq.) and were culture in DMEM containing antibiotics an ascorbic acid at 37° C. in an atmosphere of 5% CO2.

Consider thrombin, for which the Kd reads like this: (Scatchard analysis, 125I thrombin, three separate experiments, read-out: affinity of very high affinity binding sites) 0.1 nM; (summary statement of Example 1, read-out: apparent affinity (3000 sites)) approximately 0.1 nM.
